We go through three molecules from patent publication US6391545B1 (priority 1992, dated 2002).

Type in all cases: cell-based
Experiment [1] concerns E. coli strain MCH164pMAK-Region II. The experiment is described as follows: MIC complementation test, MCH164pMAK-Region II. The settings on record: Escherichia coli.
For experiment [2], the system named is E. coli strain MCH164pMAL-marA. The experiment is described as follows: MIC complementation test, MCH164pMAL-marA. The note with it: Escherichia coli, MCH164PMALMARA
The test system of experiment [3] is E. coli strain MCH164pMAL-marAB. The experiment is described as follows: MIC complementation test, MCH164pMAL-marAB. The note with it: Escherichia coli, MCH164PMALMARAB
Experiment [4] has as its system E. coli strain AG102 (Mar mutant). The experiment can be described thus: MIC complementation test, AG102 (Mar mutant). The settings on record: Escherichia coli.
The subject of experiment [5] is E. coli strain MCH164PHH193-SEQ ID NO:1. The experiment can be described thus: MIC complementation test, MCH164PHH193-SEQ ID NO:1. The settings on record: Escherichia coli.
For experiment [6], the system named is E. coli strain MCH164pMAL-marB. The experiment is described as follows: MIC complementation test, MCH164pMAL-marB. The settings on record: Escherichia coli, MCH164PMALMARB

Structures are written as SMILES. Converted amounts (≈) assume the structure as drawn.

As a reminder, the MIC is the lowest concentration found to suppress growth. A high value points to weaker potency. `CN(C)[C@@H]1C(O)=C(C(N)=O)C(=O)[C@@]2(O)C(O)=C3C(=O)c4c(O)cccc4[C@@](C)(O)[C@H]3C[C@@H]12` [Tet, tetracycline]: the minimum inhibitory concentration (MIC) in experiment [1] amounted to 4.7 mg/L (≈ 10.6 µM); in experiment [2] it was 3.4 mg/L (≈ 7.65 µM); in experiment [3], 4.7 mg/L (≈ 10.6 µM); in experiment [4], 13.8 mg/L (≈ 31.1 µM); in experiment [5], 13.1 mg/L (≈ 29.5 µM); in experiment [6], 2.1 mg/L (≈ 4.73 µM).
In the case of `O=C(N[C@H](CO)[C@H](O)c1ccc([N+](=O)[O-])cc1)C(Cl)Cl` [clm, chloramphenicol], the MIC in experiment [2] was 4.9 mg/L (≈ 15.2 µM); in experiment [3] it was 7.2 mg/L (≈ 22.3 µM); in experiment [4], over 25 mg/L; in experiment [6], 1 mg/L (≈ 3.09 µM).
On to `CCn1cc(C(=O)O)c(=O)c2ccc(C)nc21` [nal, nalidixic acid], for which the MIC stood at 6.8 mg/L (≈ 29.3 µM) in experiment [1]; 5.3 mg/L (≈ 22.8 µM) in experiment [2]; 6.3 mg/L (≈ 27.1 µM) in experiment [3]; 14.5 mg/L (≈ 62.4 µM) in experiment [4]; 13.6 mg/L (≈ 58.6 µM) in experiment [5]; 2.1 mg/L (≈ 9.04 µM) in experiment [6].
